Test results as given in patent US20140004243A1, “SALTY TASTE ENHANCER” (AJINOMOTO CO., INC., priority 2011, published 2014).

Target: T1, Human ENaC δ, β and γ subunit (Homo sapiens, UniProt P51168+P51170+P51172)
T1 construct: expressed in transfected cells; host or cells: Xenopus laevis (African clawed frog) oocytes injected with cRNA
T1 sequence (P51172 1-802): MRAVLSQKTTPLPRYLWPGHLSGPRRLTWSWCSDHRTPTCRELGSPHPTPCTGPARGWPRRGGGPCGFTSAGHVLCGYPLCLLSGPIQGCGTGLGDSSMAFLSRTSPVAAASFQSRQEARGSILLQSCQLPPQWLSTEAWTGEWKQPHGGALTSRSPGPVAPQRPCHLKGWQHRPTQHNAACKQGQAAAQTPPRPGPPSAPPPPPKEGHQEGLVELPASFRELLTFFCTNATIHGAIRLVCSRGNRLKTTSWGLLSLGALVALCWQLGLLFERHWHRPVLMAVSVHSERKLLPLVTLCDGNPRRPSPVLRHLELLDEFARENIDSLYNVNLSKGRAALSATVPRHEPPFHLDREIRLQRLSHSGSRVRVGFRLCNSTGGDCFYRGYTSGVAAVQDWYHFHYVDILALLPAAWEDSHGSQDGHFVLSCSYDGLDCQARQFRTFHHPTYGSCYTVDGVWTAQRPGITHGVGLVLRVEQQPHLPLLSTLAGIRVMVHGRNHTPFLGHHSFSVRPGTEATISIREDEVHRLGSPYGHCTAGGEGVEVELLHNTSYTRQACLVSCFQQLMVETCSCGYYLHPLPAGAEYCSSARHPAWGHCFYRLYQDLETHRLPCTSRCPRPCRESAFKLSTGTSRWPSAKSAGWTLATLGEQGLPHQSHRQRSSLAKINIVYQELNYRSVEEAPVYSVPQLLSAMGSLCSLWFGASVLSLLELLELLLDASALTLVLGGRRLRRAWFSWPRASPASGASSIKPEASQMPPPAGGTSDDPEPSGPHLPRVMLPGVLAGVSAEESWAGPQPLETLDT
T1 sequence (P51168 1-640): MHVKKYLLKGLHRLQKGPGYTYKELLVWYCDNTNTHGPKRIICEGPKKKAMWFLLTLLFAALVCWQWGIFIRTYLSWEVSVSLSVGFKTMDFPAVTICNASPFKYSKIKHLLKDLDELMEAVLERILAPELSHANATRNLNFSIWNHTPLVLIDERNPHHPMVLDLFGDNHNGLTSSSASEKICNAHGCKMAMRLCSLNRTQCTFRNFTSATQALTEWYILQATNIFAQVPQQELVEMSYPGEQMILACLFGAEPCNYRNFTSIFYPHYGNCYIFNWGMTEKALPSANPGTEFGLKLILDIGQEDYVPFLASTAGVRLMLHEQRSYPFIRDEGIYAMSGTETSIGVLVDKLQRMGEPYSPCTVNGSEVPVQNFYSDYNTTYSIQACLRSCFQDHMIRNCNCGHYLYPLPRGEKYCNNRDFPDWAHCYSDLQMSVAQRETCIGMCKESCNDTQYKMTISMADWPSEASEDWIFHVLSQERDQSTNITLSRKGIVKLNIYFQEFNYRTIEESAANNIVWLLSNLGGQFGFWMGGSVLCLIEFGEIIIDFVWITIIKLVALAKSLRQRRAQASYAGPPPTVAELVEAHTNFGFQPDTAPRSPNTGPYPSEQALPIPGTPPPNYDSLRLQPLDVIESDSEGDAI
T1 sequence (P51170 1-649): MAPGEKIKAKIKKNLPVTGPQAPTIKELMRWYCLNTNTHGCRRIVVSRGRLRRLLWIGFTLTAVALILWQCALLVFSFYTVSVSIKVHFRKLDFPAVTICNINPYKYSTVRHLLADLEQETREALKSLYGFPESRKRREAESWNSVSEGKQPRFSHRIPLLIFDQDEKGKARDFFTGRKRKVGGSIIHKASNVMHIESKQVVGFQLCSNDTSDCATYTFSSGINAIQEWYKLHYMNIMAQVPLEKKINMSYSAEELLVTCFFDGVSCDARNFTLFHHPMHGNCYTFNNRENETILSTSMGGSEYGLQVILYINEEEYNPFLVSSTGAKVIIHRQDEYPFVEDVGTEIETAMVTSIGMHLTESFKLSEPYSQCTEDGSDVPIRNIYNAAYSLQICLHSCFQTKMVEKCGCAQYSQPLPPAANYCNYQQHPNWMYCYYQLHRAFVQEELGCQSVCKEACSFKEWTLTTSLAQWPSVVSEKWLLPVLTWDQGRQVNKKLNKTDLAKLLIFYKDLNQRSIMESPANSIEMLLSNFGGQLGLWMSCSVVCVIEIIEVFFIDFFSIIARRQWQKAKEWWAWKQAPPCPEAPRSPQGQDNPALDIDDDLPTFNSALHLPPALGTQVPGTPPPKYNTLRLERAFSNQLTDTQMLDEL
Assay: Measurement of ENaC activation potency (MED) in ENaC-expressing oocyte, Two Electrode Voltage Clamp
Format: cell-based
Conditions: minimum effective dose at which current started to increase; ENaC-expressing African clawed frog oocyte; smaller MED = higher ENaC activation potency
In short: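 Xenopus oocytes injected with human ENaC δ, β and γ cRNA, cultured 16–72 hr, voltage-clamped 30 mV below resting potential in ND96 (pH 7.6) by two-electrode voltage clamp. Compounds (0.1 nM–300 μM) perfused at rising concentrations every 3 min. MED = lowest dose raising current ≥10%, or raising 5 μM capsazepine-evoked current ≥25%, whichever smaller.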

MED [µM] | SMILES
0.3 | OC[C@@H](NC(=S)NCCc1ccccc1)c1ccccc1 [Example 51]
3 | Oc1cc2c(cc1O)CN(C(=S)NCCc1ccc(Cl)cc1)CCC2 [capsazepine]
0.3 | C[C@@H](NC(=S)NCCc1ccccc1)c1ccccc1 [Example 11]
